Source: patent publication US20150065693A1, “COMPOSITION FOR PROPHYLAXIS OR TREATMENT OF VASCULAR OR CARDIAC VALVULAR CALCIFICATION COMPRISING DIPEPTIDYL PEPTIDASE-4 INHIBITOR” (THE ASAN FOUNDATION, priority 2013, published 2015)

Legend:
CD26/DPP-4 mRNA = CD26/DPP-4 mRNA expression by RT-PCR in vascular smooth muscle cells; type: cell-based, mice; conditions: extent in proportion to the concentration of DETA-NO, FIG. 4
[1] = system: calcification of the cardioaorta; test: In vivo calcium deposition in the cardioaorta by Osteosense fluorescence; conditions: control and eNOS KO transgenic mice, FIG. 11
Experimental: To determine whether the calcification of the cardioaorta decreased by the CD26 inhibitor, a CD26 inhibitor drug, DPPIV inhibitor sitagliptin, was administered to the control and the eNOS KO transgenic mice. Thereafter, the intensity of fluorescence was monitored by injecting Osteosense into the mice to check the in vivo calcium deposition. In FIG. 11, the red intensity of fluorescence represents a level of calcification.

[2] = system: vascular smooth muscle cells from the eNOS KO mice; test: Osteogenic differentiation of vascular smooth muscle cells (ALP, AR, VK staining); type: cell-based; conditions: FIG. 10B
Experimental: The aorta extracted with the heart was washed with a serum-free M199 medium (Cellgro), and cut into small pieces. Thereafter, 20% fetal calf serum, and 3 mg/mL collagenase (Sigma) were added to the M199 medium, and […] for 3 hours in a 37° C. water bath. Then, it was confirmed that the separated cells were vascular smooth muscle cells using an α-SM actin monoclonal antibody (Sigma). The separated vascular smooth muscle cells were divided at a 30% concentration, and the medium used was replaced with osteogenic medium (Osteogenic Basal Medium, Osteogenic SingleQuots, Lonza, USA) after 24 hours. The medium was replaced every 3 days, and the cell culture was performed for 28 days. The concentration of sCD26/DPP-4 was measured upon medium replacement.
For the wild-type mice and eNOS KO mice, it was determined whether the promotion of ossification of vascular smooth muscle cells was induced by CD26 using an ALP staining method as a staining method used at the initial calcification stage, an AR staining method as a staining method used at the middle calcification stage, and a VK staining method as a staining method used at the late calcification stage.
Also, the vascular smooth muscle cells from the eNOS KO mice were treated with CD26 and a CD26 inhibitor, diprotin A, respectively.

## NCCN(CCN)/[N+]([O-])=N/O [DETA-NO]
CD26/DPP-4 mRNA
  expression of the CD26/DPP-4 mRNA: decreased

## N[C@@H](CC(=O)N1CCn2c(nnc2C(F)(F)F)C1)Cc1cc(F)c(F)cc1F [sitagliptin]
[1]
  calcification in the cardioaorta: slowly proceeded

## diprotin A
[2]
  osteogenic differentiation: inhibited
